Values quoted from earlier work as cited in patent publication US20130053277A1 (priority 2010, published 2013).

Biological target: influenza A virus M2 ion channel, S31N mutant (Influenza A virus, UniProt P0DOF5, S31N)
Details: cited from earlier work

## NC12CC3CC(CC(C3)C1)C2 [amantadine, Amantadine]
  isochronic apparent inhibitory binding constant: 200 JLM
